From US20250034170A1, “SMALL MOLECULE MODULATORS OF GLUCOCEREBROSIDASE ACTIVITY AND USES THEREOF” (Vanqua Bio, Inc., priority 2021, published 2025)

molecular target: T1, GCase (Homo sapiens, UniProt P04062); assay: activation of GCase in a live cell PFB assay in HELA cells; assay type: cell-based; settings: activation of GCase, EC50 ranges
T1 construct: endogenous in cells; host or cells: HeLa cells
T1 sequence (P04062 40-536): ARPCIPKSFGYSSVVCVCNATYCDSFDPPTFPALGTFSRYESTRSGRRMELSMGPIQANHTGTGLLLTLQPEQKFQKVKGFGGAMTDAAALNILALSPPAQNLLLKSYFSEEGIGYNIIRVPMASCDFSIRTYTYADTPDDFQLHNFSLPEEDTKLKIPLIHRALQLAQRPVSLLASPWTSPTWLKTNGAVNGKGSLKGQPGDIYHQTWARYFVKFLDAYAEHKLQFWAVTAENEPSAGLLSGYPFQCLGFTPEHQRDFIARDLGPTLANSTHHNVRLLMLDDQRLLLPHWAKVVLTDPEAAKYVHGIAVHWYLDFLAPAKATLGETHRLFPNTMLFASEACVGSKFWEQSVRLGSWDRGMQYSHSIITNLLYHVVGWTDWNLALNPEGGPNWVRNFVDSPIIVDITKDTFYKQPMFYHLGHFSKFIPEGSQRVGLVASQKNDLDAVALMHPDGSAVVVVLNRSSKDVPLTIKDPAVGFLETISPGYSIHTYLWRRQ
Procedure: Exemplary compounds were evaluated for activation of GCase in a live cell PFB assay in HELA cells (essentially as described in Ysselstein et al., “LRRK2 kinase activity regulates lysosomal glucocerebrosidase in neurons derived from Parkinson's disease patients” Nature Communications (2019) 10:5570). […] EC50 ranges: A: <10 μM; B: >10-50 μM; C: >50-100 μM; D: >100 μM.

Compound	EC50
O=C1CC2(CN1c1ccnc(C(F)(F)F)c1)C1CC2CN(c2cnc3cnn(CC(F)F)c3n2)C1 (stereo not drawn) [Cmpd 721]	> 100 µM
O=C1CC2(CN1c1ccc(F)c(C(F)(F)F)c1)C1CC2CN(c2cnc3cnn(CC(F)F)c3n2)C1 (stereo not drawn) [Cmpd 722]	10 to 50 µM
O=C1CC2(CC3CCC(C2)N3c2cnc3cnn(CC(F)F)c3n2)CN1c1cc(C(F)(F)F)ccn1 (stereo not drawn) [Cmpd 723]	10 to 50 µM
O=C1CC2(CN1c1cc(C(F)(F)F)ccn1)C1CCC2CN(c2cnc3cnn(CC(F)F)c3n2)C1 (stereo not drawn) [Cmpd 724]	10 to 50 µM
CC1CN(c2cnc3cnn(CC(F)F)c3n2)CCC12CC(=O)N(c1cc(C(F)(F)F)ccn1)C2 (stereo not drawn) [Cmpd 725]	10 to 50 µM
CC1CC2(CCN1c1cnc3cnn(CC(F)F)c3n1)CC(=O)N(c1cc(C(F)(F)F)ccn1)C2 (stereo not drawn) [Cmpd 726]	10 to 50 µM
O=C1CC2(CCN(c3cnc4cnn(CC(F)F)c4n3)CC2)CN1c1ccc(F)cc1F [Cmpd 728]	10 to 50 µM
Fc1ccc(N2CCC3(CCN(c4cnc5cnn(CC(F)F)c5n4)CC3)C2)c(F)c1 [Cmpd 730]	10 to 50 µM
FC(F)Cn1ncc2ncc(N3CCC4(CCN(c5cnnc(C(F)(F)F)c5)C4)CC3)nc21 [Cmpd 731]	10 to 50 µM
FC(F)Cn1ncc2ncc(N3CCC4(CCN(c5ccc(C(F)(F)F)nn5)C4)CC3)nc21 [Cmpd 732]	10 to 50 µM
FC(F)Cn1ncc2ncc(N3CCC4(CC3)CCN(c3nccnc3C(F)(F)F)C4)nc21 [Cmpd 735]	10 to 50 µM
FC(F)Cn1ncc2ncc(N3CCC4(CCN(c5cnc(C(F)(F)F)nc5)C4)CC3)nc21 [Cmpd 736]	10 to 50 µM
Fc1cc(C(F)(F)F)cnc1N1CCC2(CCN(c3cnc4cnn(CC(F)F)c4n3)CC2)C1 [Cmpd 743]	10 to 50 µM
CC1N(c2cc(C(F)(F)F)ccn2)CCC12CCN(c1cnc3cnn(CC(F)F)c3n1)CC2 (stereo not drawn) [Cmpd 747]	10 to 50 µM
CC1CC2(CCN(c3cnc4cnn(CC(F)F)c4n3)CC2)CN1c1cc(C(F)(F)F)ccn1 (stereo not drawn) [Cmpd 749]	10 to 50 µM
FC(F)OCCn1ncc2ncc(N3CCC4(CCN(c5cc(C(F)(F)F)ccn5)C4)CC3)nc21 [Cmpd 751]	10 to 50 µM
FC(F)Cn1ncc2ncc(N3CCC4(CC3)CCN(c3cnc(C(F)(F)F)cc3Cl)C4)nc21 [Cmpd 754]	> 100 µM
Cc1cc(C)c(N2CCC3(CCN(c4cnc5cnn(CC(F)F)c5n4)CC3)C2)nn1 [Cmpd 755]	10 to 50 µM
Cc1cc(C(F)(F)F)nnc1N1CCC2(CCN(c3cnc4cnn(CC(F)F)c4n3)CC2)C1 [Cmpd 756]	10 to 50 µM
O=C1CC2(CCN(c3cnc4cnn(C5COC5)c4n3)CC2)CN1c1ccnc(C(F)(F)F)c1 [Cmpd 769]	10 to 50 µM
FC(F)Cn1ncc2ncc(N3CC4(CCN(c5cncc(C(F)(F)F)n5)CC4)C3)nc21 [Cmpd 771]	< 10 µM
O=C1N(c2cnc3cnn(CC(F)F)c3n2)CCC12CCN(c1cnc(C(F)(F)F)cn1)CC2 [Cmpd 772]	> 100 µM
O=C1N(c2nccc(C(F)(F)F)n2)CCC12CCN(c1cnc3cnn(CC(F)F)c3n1)CC2 [Cmpd 773]	< 10 µM
O=C1N(c2cncc(C(F)(F)F)n2)CCC12CCN(c1cnc3cnn(CC(F)F)c3n1)CC2 [Cmpd 774]	< 10 µM
Cc1cc(C(F)(F)F)cnc1N1CCC2(CCN(c3cnc4cnn(CC(F)F)c4n3)CC2)C1=O [Cmpd 775]	> 100 µM
O=C1N(c2ncc(C(F)(F)F)cc2Cl)CCC12CCN(c1cnc3cnn(CC(F)F)c3n1)CC2 [Cmpd 776]	10 to 50 µM

Continued, values first:

EC50	Compound
< 10 µM	O=C1N(c2cc(C(F)(F)F)ccn2)C(=O)C2(CCN(c3cnc4cnn(CC(F)F)c4n3)CC2)N1Cc1cccc(F)c1F [Cmpd 717]
< 10 µM	O=C1N(c2cc(C(F)(F)F)ccn2)C(=O)C2(CCN(c3cnc4cnn(CC(F)F)c4n3)CC2)N1Cc1cc(F)ccc1F [Cmpd 718]
< 10 µM	O=C1N(c2cc(C(F)(F)F)ccn2)C(=O)C2(CCN(c3cnc4cnn(CC(F)F)c4n3)CC2)N1Cc1ccc(F)c(F)c1 [Cmpd 719]
< 10 µM	O=C1CC2(CCN(c3cnc4cnn(CC(F)F)c4n3)CC2)CN1c1ccc(C(F)(F)F)cc1F [Cmpd 729]
< 10 µM	FC(F)Cn1ncc2ncc(N3CCC4(CCN(c5cncc(C(F)(F)F)n5)C4)CC3)nc21 [Cmpd 733]
< 10 µM	FC(F)Cn1ncc2ncc(N3CCC4(CCN(c5cnc(C(F)(F)F)cn5)C4)CC3)nc21 [Cmpd 734]
< 10 µM	FC(F)Cn1ncc2ncc(N3CCC4(CCN(c5ccnc(C(F)(F)F)n5)C4)CC3)nc21 [Cmpd 737]
< 10 µM	FC(F)Cn1ncc2ncc(N3CCC4(CCN(c5ccnc(OCC(F)(F)F)n5)C4)CC3)nc21 [Cmpd 738]
< 10 µM	FC(F)Cn1ncc2ncc(N3CCC4(CCN(c5cnc(OCC(F)(F)F)nc5)C4)CC3)nc21 [Cmpd 739]
< 10 µM	Fc1cnc(N2CCC3(CCN(c4cnc5cnn(CC(F)F)c5n4)CC3)C2)cc1C(F)(F)F [Cmpd 740]
< 10 µM	Fc1cnc(C(F)(F)F)cc1N1CCC2(CCN(c3cnc4cnn(CC(F)F)c4n3)CC2)C1 [Cmpd 741]
< 10 µM	Fc1cc(N2CCC3(CCN(c4cnc5cnn(CC(F)F)c5n4)CC3)C2)cnc1C(F)(F)F [Cmpd 742]
< 10 µM	CC1CC2(CCN(c3cc(C(F)(F)F)ccn3)C2)CCN1c1cnc2cnn(CC(F)F)c2n1 (stereo not drawn) [Cmpd 745]
< 10 µM	CC1CN(c2cnc3cnn(CC(F)F)c3n2)CCC12CCN(c1cc(C(F)(F)F)ccn1)C2 (stereo not drawn) [Cmpd 746]
< 10 µM	CC1CN(c2cc(C(F)(F)F)ccn2)CC12CCN(c1cnc3cnn(CC(F)F)c3n1)CC2 (stereo not drawn) [Cmpd 748]
< 10 µM	COCCn1ncc2ncc(N3CCC4(CCN(c5cc(C(F)(F)F)ccn5)C4)CC3)nc21 [Cmpd 750]

EC50	Compound
< 10 µM	CC(C(F)F)n1ncc2ncc(N3CCC4(CCN(c5cc(C(F)(F)F)ccn5)C4)CC3)nc21 (stereo not drawn) [Cmpd 752]
< 10 µM	Cc1cc(C(F)(F)F)ncc1N1CCC2(CCN(c3cnc4cnn(CC(F)F)c4n3)CC2)C1 [Cmpd 753]
< 10 µM	Cc1ccc(N2CCC3(CCN(c4cnc5cnn(CC(F)F)c5n4)CC3)C2)nn1 [Cmpd 757]
< 10 µM	Cc1nccc(N2CCC3(CCN(c4cnc5cnn(CC(F)F)c5n4)CC3)C2)n1 [Cmpd 758]
< 10 µM	Cc1ncc(N2CCC3(CCN(c4cnc5cnn(CC(F)F)c5n4)CC3)C2)cn1 [Cmpd 759]
< 10 µM	CCc1ncc(N2CCC3(CCN(c4cnc5cnn(CC(F)F)c5n4)CC3)C2)cn1 [Cmpd 760]
< 10 µM	Cc1nc(C(F)(F)F)ncc1N1CCC2(CCN(c3cnc4cnn(CC(F)F)c4n3)CC2)C1 [Cmpd 761]
< 10 µM	COc1ncc(N2CCC3(CCN(c4cnc5cnn(CC(F)F)c5n4)CC3)C2)cn1 [Cmpd 762]
< 10 µM	CCOc1ncc(N2CCC3(CCN(c4cnc5cnn(CC(F)F)c5n4)CC3)C2)cn1 [Cmpd 763]
< 10 µM	Cc1ncc(N2CCC3(CCN(c4cnc5cnn(CC(F)F)c5n4)CC3)C2)nc1C(F)(F)F [Cmpd 764]
< 10 µM	Cc1ncc(C(F)(F)F)nc1N1CCC2(CCN(c3cnc4cnn(CC(F)F)c4n3)CC2)C1 [Cmpd 765]
< 10 µM	Fc1ncc(C(F)(F)F)nc1N1CCC2(CCN(c3cnc4cnn(CC(F)F)c4n3)CC2)C1 [Cmpd 766]
< 10 µM	Fc1ncc(N2CCC3(CCN(c4cnc5cnn(CC(F)F)c5n4)CC3)C2)nc1C(F)(F)F [Cmpd 767]
< 10 µM	FC(F)(F)c1cncc(N2CCC3(CCN(c4cnc5cnn(C6COC6)c5n4)CC3)C2)n1 [Cmpd 768]
< 10 µM	FC(F)Cn1ncc2ncc(N3CC4(CCN(c5cnc(C(F)(F)F)cn5)CC4)C3)nc21 [Cmpd 770]
